How the values were obtained:
[1] = urinary Ca++ and Mg++ levels (ratios to creatinine) in spot urine collections; type: in vivo, mouse; conditions: 5 mg/kg BW−1
Procedure: Mice were housed individually in metabolic cages (Harvard Apparatus) with free access to water and food for 24 hr. Urine was collected under mineral oil. The plasma and urine Ca^++ and Mg^++ levels were determined with atomic flame absorption spectrophotometer (PerkinElmer). The creatinine levels were measured with an enzymatic method that was independent of plasma chromogens. (Gong Y, et al., 2013) The fractional excretion of electrolytes was calculated using the following equation FEion=V×Uion/(GFR×Pion), where GFR was calculated according to the clearance rate of creatinine (GFR=V×Ucreatinine/Pcreatinine).
In these experiments, the inventors gave wild-type C57BL/6 mice SAHA treatments at 5 mg/kg BW^−1 and traced urinary Ca^++ and Mg^++ levels (as ratios to creatinine) from 4 hr to 12 hr in spot urine collections. Consistent with the downregulation of CLDN14 gene expression at 4 hrs, the urinary excretion of Ca^++ and Mg^++ was reduced by 47% and 40% respectively (p<0.01, n=5 versus vehicle, FIG. 19A-B).

[2] = circulating hormonal levels in SAHA treated mice (ELISA); type: in vivo, mouse; conditions: SAHA treatments versus vehicle
Procedure: FIG. 24 illustrates circulating hormonal levels in SAHA versus vehicle treated mouse kidneys. Serum PTH (A), 1,25-(OH)2-vitD3 (B) and FGF23 (C) levels were measured with ELISA and shown as mean±SEM, n=5.

## O=C(CCCCCCC(=O)Nc1ccccc1)NO [SAHA, Suberanilohydroxamic acid]
[1]; 4 hrs, versus vehicle
  urinary excretion of Ca++, reduction: 47%
  urinary excretion of Mg++, reduction: 40%
[1]; after 12 hrs
  effects on urinary Ca++ and Mg++ levels: completely lost
[1]; by 8 hrs
  urinary Ca++ excretion: hypocalciuria was pronounced
  urinary magnesium excretion: recovered to the vehicle level
[2]
  circulating 1,25-(OH)2-vitD3 levels: None of these hormones changed
  circulating FGF23 levels: None of these hormones changed
  circulating PTH levels: None of these hormones changed

Reference: patent US20140242609A1, “Diagnosis and treatment of kidney stones, methods and compositions therefor” (Washington University, priority 2013, published 2014)
